Experiments:
[1] = Micellization and Surface Tension Reduction; type: physicochemical; settings: in water
Excerpt: The appearance and development of micelles are important since detergency (solubilization of soils) by dishwashing liquids, shampoos, detergents, etc., depend on the formation of these aggregates in solution.

[2] = Krafft Point (Water Solubility Test); settings: for Krafft Point (0.1%): 0.1% dispersion in water by weight; for water solubility (in words): 0.1% in water, Krafft point test
Method: The temperature at and above which surfactants begin to form micelles instead of precipitates is referred to as the Krafft point (Tk) and at this temperature the solubility of a surfactant becomes equal to its CMC (numerical value at which micelles are formed).
The Krafft point was measured by preparing 650 ml of a 0.1% dispersion of surfactant in water by weight. If the surfactant was soluble at room temperature, the solution was slowly cooled to 0° C. […] If it precipitated out of solution, the temperature at which precipitation occurs was taken as the Krafft point.
If the surfactant was insoluble at room temperature, the dispersion was slowly heated until the solution became homogeneous. It was then slowly cooled until precipitation occurred. The temperature at which the surfactant precipitates out of solution upon cooling was taken as the Krafft point.

[3] = Ross-Miles Foam Height of Various Sugar Based Surfactants; settings: 0.1% surfactant, 50° C.; for Initial foam height / Final foam height (10 min.): 0 ppm hardness; for Final foam height (10 min.): after 10 minutes; for solubility in foam height test (in words): foam height cannot be measured if insoluble
Method: Since most of the foaming data on surfactants is typically obtained by the Ross-Miles Foam Height Assay (Ross, J. and Miles, G. D. Am Soc. for Testing material Method D1173-63 Philadelphia, Pa. (1953); Oil & Soap (1958)62:1260) the foaming ability of these surfactants were acquired using this method.
In the Ross-Miles method, 200 mL of a surfactant solution contained in a pipette of specified dimensions with a 2.9 -mm-i.d. orifice is allowed to fall 90 cm onto 50 mL of the same solution contained in a cylindrical vessel maintained at a given temperature by means of a water jacket. The height of the foam produced in the cylindrical vessel is read immediately after all the solution has run out of the pipette and then again after a given amount of time.
Using this method, the foam production (initial foam height in mm) and foam stability (final foam height after 10 minutes as measured in mm) were measured at 0.1% sugar surfactant concentration, 50° C. and 0 ppm (parts per million) hardness.

[4] = Foaming of a Prototype Detergent Formulation (Ross Miles Foam Height Method); type: physicochemical; settings: for Foam height of formulation, 5 min / Foam height of formulation, 10 min / Foam height of formulation, Initial: formulation with 4% of the compound, 0.4% formulation, 25° C., 18 FH
Excerpt: A prototype detergent formulation comprising a hydroxy containing alkyl glycamide surfactant was made and tested to an identical formulation containing a non-hydroxy containing alkyl glycamide. The formulation is as follows: […]
C10 -C14 Linear Alkylbenzene Sulfonate
C12 -C15 Alcohol Ethoxylate Containing 7 Units of
Dodecyl 5-Hydroxy D-Glucamide (or Comparative)
Sodium Tripolyphosphate 30
Sodium Carboxymethyl Cellulose

[5] = test system: zein
Method: The zein solubilization assay was developed to determine the biological effects of surfactants on the skin. The protein is normally insoluble in water, but can be brought into solution by interaction with surfactants. The extent of zein dissolved is related to the irritation potential (M. J. Schwinger, Kolloid-Z.Z. Poly., 233, 848, 1969). The greater the zein solubilization, the greater the irritation potential of that surfactant on the skin.
Thus, a 1% solution of surfactant (30 mls) was added to 1.5 g of zein and stirred at room temperature for 1 hours. Residual zein was collected and dried to constant weight. Differences between starting and residual weight were used to calculate % zein solubilized.

[6] = Clarity Enhancement of prototype detergent compositions with sodium lauryl sulfate; type: physicochemical; settings: 3% compound with 15.0% sodium lauryl sulfate, room temperature; for Appearance: stored 6 months
Method: The prototype detergent composition is as follows:
Hydroxy Containing Alkyl
Glycamide (or Comparative)
Sodium Chloride 2.0% Viscosity Cobuilder
The above formulations were prepared by admixing the above ingredients in listed order and heating the mixture to about 80° C. with rapid stirring. The mixture was then cooled to about 40° C., placed in a clear jar and stored at room temperature for 6 months.

What does the source list for `CCCCCCCCCCNC(=O)[C@H](O)[C@@H](O)[C@H](O)[C@H](O)CO` [Decyl D-Gluconamide]?
Micellization and Surface Tension Reduction [1]: Yes; Krafft Point (0.1%) [2]: 75 °C; Initial foam height [3]: 199 mm; Final foam height (10 min.) [3]: 6 mm

For `CCCCCCCC(O)CCCC(=O)NC[C@H](O)[C@@H](O)[C@H](O)[C@H](O)CO` (stereo partly drawn) [Dodecyl 5-Hydroxy D-Glucamide, dodecyl 5-hydroxy D-glucamide], which “foaming of formulation (in words)” value ([4]; compared to identical formulation with dodecyl methyl D-glucamide) is on record?
The value was “low foaming compared to identical formulations containing dodecyl methyl D-glucamide”.

What about the “Foam height of formulation, 5 min” value [4] of the same compound?
Its value is 94 mm.

What about the “Foam height of formulation, 10 min” value [4] of the same compound?
The value was 75 mm.

And the “Foam height of formulation, Initial” value [4]?
Its value is 125 mm.

And the “% Zein Solubilized” value [5]?
The value was 7%.

And the “mildness / zein solubilization (in words)” value [5]?
The value was “less zein solubilization”.

What about the “Micellization and Surface Tension Reduction” value [1] of the same compound?
The value was “Yes”.

What about the “Krafft Point (0.1%)” value [2] of the same compound?
Its value is 41 °C.

And the Appearance ([6]; listed as C12 5-Hydroxy D-Glucamide)?
Its Appearance is “Clear”.

And the Appearance ([6]; listed as dodecyl 5-hydroxy glucamide)?
Its Appearance is “stay in solution”.

What about the Initial foam height [3] of the same compound?
The Initial foam height was 67 mm.

What about the “Final foam height (10 min.)” value [3] of the same compound?
The value was “Negligible”.

Which “Micellization and Surface Tension Reduction” value [1] does the source give for `CN(C[C@H](O)[C@@H](O)[C@H](O[C@H]1O[C@H](CO)[C@@H](O)[C@H](O)[C@H]1O)[C@H](O)CO)C(=O)CCCCCCCCCCCO` [Dodecyl 12-Hydroxy Methyl D-Maltamide, dodecyl 12-hydroxy methyl D-maltamide] here?
Its value is “Yes”.

What about the “Krafft Point (0.1%)” value [2] of the same compound?
Its value is under 21 °C.

And the Initial foam height [3]?
Its Initial foam height is 57 mm.

What about the “Final foam height (10 min.)” value [3] of the same compound?
Its value is “Negligible”.

Which “Micellization and Surface Tension Reduction” value [1] does the source give for `CCCCCCCCCCCC(=O)NC[C@H](O)[C@@H](O)[C@H](O)[C@H](O)CO` [Dodecyl D-Glucamide, dodecyl D-glucamide] here?
The value was “No”.

What about the “Krafft Point (0.1%)” value [2] of the same compound?
Its value is over 100 °C.

And the “water solubility (in words)” value [2]?
Its value is “Insoluble”.

What about the Time to precipitation [6] of the same compound?
The Time to precipitation was at most 3 days.

What about the Appearance [6] of the same compound?
Its Appearance is “Precipitate”.

And the Time to precipitation ([6]; listed as C12 D-Glucamide)?
The Time to precipitation was 3 days.

What about the “solubility in foam height test (in words)” value [3] of the same compound?
The value was “Insoluble”.

Which results are given for `CCCCCCCCCCCCNC(=O)[C@H](O)[C@@H](O)[C@H](O)[C@H](O)CO` [Dodecyl D-Gluconamide]?
Micellization and Surface Tension Reduction [1]: No; Krafft Point (0.1%) [2]: > 100 °C; water solubility (in words) [2]: Insoluble; solubility in foam height test (in words) [3]: Insoluble

Which “Micellization and Surface Tension Reduction” value [1] does the source give for `CCCCCCCCCCCCNC(=O)[C@@H](O)[C@H](O)[C@@H](O)[C@@H](O)CO` [Dodecyl L-Gluconamide] here?
The value was “No”.

What about the “Krafft Point (0.1%)” value [2] of the same compound?
Its value is over 100 °C.

What about the “water solubility (in words)” value [2] of the same compound?
The value was “Insoluble”.

What about the “solubility in foam height test (in words)” value [3] of the same compound?
The value was “Insoluble”.

What does the source list for `CCCCCCCCCCCC(=O)N(C)C[C@H](O)[C@@H](O)[C@H](O)[C@H](O)CO` [Dodecyl Methyl D-Glucamide, dodecyl methyl D-glucamide]?
Foam height of formulation, 5 min [4]: 110 mm; Foam height of formulation, 10 min [4]: 100 mm; Foam height of formulation, Initial [4]: 135 mm; Micellization and Surface Tension Reduction [1]: Yes; Krafft Point (0.1%) [2]: 45 °C; Initial foam height [3]: 173 mm; Final foam height (10 min.) [3]: 157 mm

With `CCCCCCCCCCCCCCCC(=O)NC[C@H](O)[C@@H](O)[C@H](O)[C@H](O)CO` [Hexadecyl D-Glucamide] as the compound, how does the “Micellization and Surface Tension Reduction” value [1] read?
The value was “No”.

What about the “Krafft Point (0.1%)” value [2] of the same compound?
The value was over 100 °C.

And the “water solubility (in words)” value [2]?
Its value is “Insoluble”.

What about the “solubility in foam height test (in words)” value [3] of the same compound?
Its value is “Insoluble”.

Which results are given for `CCCCCCCCCCCCCCCCNC(=O)[C@H](O)[C@@H](O)[C@H](O)[C@H](O)CO` [Hexadecyl D-Gluconamide]?
Micellization and Surface Tension Reduction [1]: No; Krafft Point (0.1%) [2]: > 100 °C; water solubility (in words) [2]: Insoluble; solubility in foam height test (in words) [3]: Insoluble

Which “Micellization and Surface Tension Reduction” value [1] does the source give for `CCCCCCCCCCCCCCCCCC(=O)NC[C@H](O)[C@@H](O)[C@H](O)[C@H](O)CO` [Octadecyl D-Glucamide] here?
The value was “No”.

And the “Krafft Point (0.1%)” value [2]?
Its value is over 100 °C.

What about the “water solubility (in words)” value [2] of the same compound?
The value was “Insoluble”.

And the “solubility in foam height test (in words)” value [3]?
Its value is “Insoluble”.

Which “Micellization and Surface Tension Reduction” value [1] does the source give for `CCCCCCCCNC(=O)[C@H](O)[C@@H](O)[C@H](O)[C@H](O)CO` [Octyl D-Gluconamide] here?
The value was “Yes”.

What about the “Krafft Point (0.1%)” value [2] of the same compound?
Its value is 12 °C.

And the Initial foam height [3]?
The Initial foam height was 0 mm.

And the “Final foam height (10 min.)” value [3]?
The value was 0 mm.

With `CCCCCCCCCCCCCC(=O)NC[C@H](O)[C@@H](O)[C@H](O)[C@H](O)CO` [Tetradecyl D-Glucamide] as the compound, how does the “Micellization and Surface Tension Reduction” value [1] read?
Its value is “No”.

And the “Krafft Point (0.1%)” value [2]?
Its value is over 100 °C.

And the “water solubility (in words)” value [2]?
The value was “Insoluble”.

What about the “solubility in foam height test (in words)” value [3] of the same compound?
Its value is “Insoluble”.

What does the source list for `CCCCCCCCCCCCCCNC(=O)[C@H](O)[C@@H](O)[C@H](O)[C@H](O)CO` [Tetradecyl D-Gluconamide]?
Micellization and Surface Tension Reduction [1]: No; Krafft Point (0.1%) [2]: > 100 °C; water solubility (in words) [2]: Insoluble; solubility in foam height test (in words) [3]: Insoluble

What does the source list for `CCCCCCCC(O)CCC(=O)NC[C@H](O)[C@@H](O)[C@H](O)[C@H](O)CO` (stereo partly drawn) [Undecyl 4-Hydroxy D-Glucamide, undecyl-4-hydroxy D-glucamide]?
Micellization and Surface Tension Reduction [1]: Yes; Krafft Point (0.1%) [2]: 37 °C; Initial foam height [3]: 60 mm; Final foam height (10 min.) [3]: Negligible

From patent US5750733A, “Hydroxy containing alkyl glycamides, low foaming detergent compositions comprising such and a process for their manufacture” (Lever Brothers Company, Division of Conopco, Inc., priority 1996, dated 1998)
